# Assay results: US9156845B2, “4-(substituted amino)-7H-pyrrolo[2,3-d] pyrimidines as LRRK2 inhibitors” (Pfizer Inc., priority 2012, dated 2015)
# Legend:
# Experiment in all cases: ActivX kinase probe assay (human PBMC)
# Format in all cases: binding
# [1] = test system: ABL, ARG
# [2] = molecular target: ACK (Homo sapiens (Human), UniProt Q07912); details: ACK, read-out: percent inhibition
# [3] = molecular target: CDK5 (Homo sapiens (Human), UniProt Q00535); details: CDK5, read-out: percent inhibition
# [4] = molecular target: CHK2 (Homo sapiens (Human), UniProt O96017); details: CHK2, read-out: percent inhibition
# [5] = molecular target: DGKA (Homo sapiens (Human), UniProt P23743); details: DGKA, read-out: percent inhibition
# [6] = molecular target: EphA1 (Homo sapiens (Human), UniProt P21709); details: EphA1, read-out: percent inhibition
# [7] = molecular target: FER (Homo sapiens (Human), UniProt P16591); details: FER, read-out: percent inhibition
# [8] = molecular target: GPRK6 (Homo sapiens (Human), UniProt P43250); details: GPRK6, read-out: percent inhibition
# [9] = molecular target: HPK1 (Homo sapiens (Human), UniProt Q92918); details: HPK1, read-out: percent inhibition
# [10] = molecular target: IKKb (Homo sapiens (Human), UniProt O14920); details: IKKb, read-out: percent inhibition
# [11] = molecular target: IKKe (Homo sapiens (Human), UniProt Q14164); details: IKKe, read-out: percent inhibition
# [12] = test system: IKKe, TBK1
# [13] = molecular target: IRAK1 (Homo sapiens (Human), UniProt P51617); details: read-out: percent inhibition
# [14] = molecular target: JAK2 domain2 (Homo sapiens (Human), UniProt O60674); details: JAK2 domain2, read-out: percent inhibition
# [15] = molecular target: KHS1 (Homo sapiens (Human), UniProt Q9Y4K4); details: KHS1, read-out: percent inhibition
# [16] = test system: KSR1, KSR2
# [17] = molecular target: LKB1 (Homo sapiens (Human), UniProt Q15831); details: LKB1, read-out: percent inhibition
# [18] = molecular target: MAP2K3 (Homo sapiens (Human), UniProt P46734); details: MAP2K3, read-out: percent inhibition
# [19] = molecular target: MARK3 (Homo sapiens (Human), UniProt P27448); details: MARK3, read-out: percent inhibition
# [20] = molecular target: MAST3 (Homo sapiens (Human), UniProt O60307); details: MAST3, read-out: percent inhibition
# [21] = molecular target: MSK1 domain1 (Homo sapiens (Human), UniProt O75582); details: MSK1 domain1, read-out: percent inhibition
# [22] = molecular target: MST3 (Homo sapiens (Human), UniProt Q9Y6E0); details: MST3, read-out: percent inhibition
# [23] = test system: MST4, YSK1
# [24] = molecular target: NEK1 (Homo sapiens (Human), UniProt Q96PY6); details: NEK1, read-out: percent inhibition
# [25] = test system: NEK6, NEK7
# [26] = molecular target: p38a (Homo sapiens (Human), UniProt Q16539); details: p38a, read-out: percent inhibition
# [27] = molecular target: p70S6K (Homo sapiens (Human), UniProt P23443); details: p70S6K, read-out: percent inhibition
# [28] = test system: p70S6K, p70S6Kb
# [29] = molecular target: PIP5K3 (Homo sapiens (Human), UniProt Q9Y2I7); details: PIP5K3, read-out: percent inhibition
# [30] = test system: PITSLRE
# [31] = molecular target: PKR (Homo sapiens (Human), UniProt P19525); details: PKR, read-out: percent inhibition
# [32] = molecular target: smMLCK (Homo sapiens (Human), UniProt Q15746); details: smMLCK, read-out: percent inhibition
# [33] = test system: TAO1, TAO3
# [34] = molecular target: TLK2 (Homo sapiens (Human), UniProt Q86UE8); details: TLK2, read-out: percent inhibition
# [35] = molecular target: ZAK (Homo sapiens (Human), UniProt Q9NYL2); details: ZAK, read-out: percent inhibition
# [36] = test system: ZC1/HGK, ZC2/TNIK, ZC3/MINK
# Chain of MAP2K3 (P46734 whole entry): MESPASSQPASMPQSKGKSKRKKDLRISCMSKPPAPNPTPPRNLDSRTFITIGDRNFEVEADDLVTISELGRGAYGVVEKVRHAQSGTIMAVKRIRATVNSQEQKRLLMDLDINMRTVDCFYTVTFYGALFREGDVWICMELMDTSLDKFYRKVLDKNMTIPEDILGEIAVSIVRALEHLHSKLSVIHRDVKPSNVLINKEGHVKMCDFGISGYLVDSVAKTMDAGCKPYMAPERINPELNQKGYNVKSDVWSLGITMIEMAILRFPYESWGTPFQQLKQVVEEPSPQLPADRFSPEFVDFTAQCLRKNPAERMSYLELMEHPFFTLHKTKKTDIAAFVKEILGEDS
# Chain of IKKb (O14920 whole entry): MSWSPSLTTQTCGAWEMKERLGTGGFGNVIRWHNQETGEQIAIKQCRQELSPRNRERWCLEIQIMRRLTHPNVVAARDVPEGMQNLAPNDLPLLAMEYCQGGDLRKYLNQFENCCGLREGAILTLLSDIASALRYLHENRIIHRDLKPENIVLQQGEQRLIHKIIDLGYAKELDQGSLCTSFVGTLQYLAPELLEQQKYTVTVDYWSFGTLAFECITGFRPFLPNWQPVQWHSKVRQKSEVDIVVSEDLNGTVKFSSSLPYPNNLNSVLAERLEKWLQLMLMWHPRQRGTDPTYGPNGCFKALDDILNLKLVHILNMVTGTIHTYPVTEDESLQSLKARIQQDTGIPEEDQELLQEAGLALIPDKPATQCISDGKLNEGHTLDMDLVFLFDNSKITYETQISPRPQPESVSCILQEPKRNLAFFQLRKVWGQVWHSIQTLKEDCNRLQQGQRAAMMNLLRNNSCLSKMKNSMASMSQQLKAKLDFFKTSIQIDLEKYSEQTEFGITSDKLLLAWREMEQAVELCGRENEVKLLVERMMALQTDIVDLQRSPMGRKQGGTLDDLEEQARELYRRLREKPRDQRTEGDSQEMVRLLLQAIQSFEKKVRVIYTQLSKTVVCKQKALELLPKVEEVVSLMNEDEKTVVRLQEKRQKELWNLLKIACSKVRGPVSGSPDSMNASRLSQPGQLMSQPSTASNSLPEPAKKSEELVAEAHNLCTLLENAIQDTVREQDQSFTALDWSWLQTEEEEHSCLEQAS
# Chain of MST3 (Q9Y6E0 whole entry): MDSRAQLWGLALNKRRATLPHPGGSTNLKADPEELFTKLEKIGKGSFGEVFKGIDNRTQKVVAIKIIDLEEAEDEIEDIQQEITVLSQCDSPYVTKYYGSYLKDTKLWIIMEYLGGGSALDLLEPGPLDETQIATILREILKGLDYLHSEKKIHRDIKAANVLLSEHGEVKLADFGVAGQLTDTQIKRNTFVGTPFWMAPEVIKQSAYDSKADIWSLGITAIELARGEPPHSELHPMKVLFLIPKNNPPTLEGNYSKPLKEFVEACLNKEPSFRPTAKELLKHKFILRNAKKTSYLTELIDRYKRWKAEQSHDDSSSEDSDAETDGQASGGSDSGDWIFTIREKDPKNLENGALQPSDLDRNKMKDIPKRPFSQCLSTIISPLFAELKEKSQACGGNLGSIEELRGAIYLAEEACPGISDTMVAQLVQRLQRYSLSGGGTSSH
# Chain of GPRK6 (P43250 whole entry): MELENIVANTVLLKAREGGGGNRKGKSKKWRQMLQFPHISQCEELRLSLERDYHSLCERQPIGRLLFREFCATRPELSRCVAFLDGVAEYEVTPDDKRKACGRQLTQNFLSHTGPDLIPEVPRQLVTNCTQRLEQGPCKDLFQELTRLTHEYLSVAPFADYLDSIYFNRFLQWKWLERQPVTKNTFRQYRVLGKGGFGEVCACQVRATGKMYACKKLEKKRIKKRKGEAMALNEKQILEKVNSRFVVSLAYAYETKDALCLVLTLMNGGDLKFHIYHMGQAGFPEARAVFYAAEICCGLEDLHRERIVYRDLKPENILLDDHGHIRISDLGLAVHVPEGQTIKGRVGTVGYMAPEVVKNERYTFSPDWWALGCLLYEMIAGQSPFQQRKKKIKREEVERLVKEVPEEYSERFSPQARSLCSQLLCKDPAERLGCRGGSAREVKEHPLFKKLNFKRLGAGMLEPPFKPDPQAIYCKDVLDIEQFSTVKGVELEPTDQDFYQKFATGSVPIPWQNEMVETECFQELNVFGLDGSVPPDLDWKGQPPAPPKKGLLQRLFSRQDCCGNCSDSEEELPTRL
# Chain of IRAK1 (P51617 whole entry, the tested form may be a part): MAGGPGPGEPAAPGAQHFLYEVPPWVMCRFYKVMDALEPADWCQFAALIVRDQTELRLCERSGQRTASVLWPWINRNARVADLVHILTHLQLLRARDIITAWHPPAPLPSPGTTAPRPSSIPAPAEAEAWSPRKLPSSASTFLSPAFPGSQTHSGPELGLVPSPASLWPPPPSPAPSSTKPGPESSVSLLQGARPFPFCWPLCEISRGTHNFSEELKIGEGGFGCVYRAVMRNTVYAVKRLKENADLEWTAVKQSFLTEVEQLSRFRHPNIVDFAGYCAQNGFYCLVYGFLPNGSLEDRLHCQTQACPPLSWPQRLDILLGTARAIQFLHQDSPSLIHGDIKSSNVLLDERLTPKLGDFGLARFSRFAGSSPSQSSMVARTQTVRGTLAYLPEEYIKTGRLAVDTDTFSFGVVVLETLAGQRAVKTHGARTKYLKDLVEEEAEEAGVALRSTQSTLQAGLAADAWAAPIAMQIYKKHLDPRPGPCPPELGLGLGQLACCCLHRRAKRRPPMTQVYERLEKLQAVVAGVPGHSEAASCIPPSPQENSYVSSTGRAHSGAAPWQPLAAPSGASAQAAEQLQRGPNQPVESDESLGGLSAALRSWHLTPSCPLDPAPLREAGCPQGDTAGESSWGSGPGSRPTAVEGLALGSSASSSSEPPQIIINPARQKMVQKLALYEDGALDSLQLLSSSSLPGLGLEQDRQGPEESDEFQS
# Chain of smMLCK (Q15746 whole entry): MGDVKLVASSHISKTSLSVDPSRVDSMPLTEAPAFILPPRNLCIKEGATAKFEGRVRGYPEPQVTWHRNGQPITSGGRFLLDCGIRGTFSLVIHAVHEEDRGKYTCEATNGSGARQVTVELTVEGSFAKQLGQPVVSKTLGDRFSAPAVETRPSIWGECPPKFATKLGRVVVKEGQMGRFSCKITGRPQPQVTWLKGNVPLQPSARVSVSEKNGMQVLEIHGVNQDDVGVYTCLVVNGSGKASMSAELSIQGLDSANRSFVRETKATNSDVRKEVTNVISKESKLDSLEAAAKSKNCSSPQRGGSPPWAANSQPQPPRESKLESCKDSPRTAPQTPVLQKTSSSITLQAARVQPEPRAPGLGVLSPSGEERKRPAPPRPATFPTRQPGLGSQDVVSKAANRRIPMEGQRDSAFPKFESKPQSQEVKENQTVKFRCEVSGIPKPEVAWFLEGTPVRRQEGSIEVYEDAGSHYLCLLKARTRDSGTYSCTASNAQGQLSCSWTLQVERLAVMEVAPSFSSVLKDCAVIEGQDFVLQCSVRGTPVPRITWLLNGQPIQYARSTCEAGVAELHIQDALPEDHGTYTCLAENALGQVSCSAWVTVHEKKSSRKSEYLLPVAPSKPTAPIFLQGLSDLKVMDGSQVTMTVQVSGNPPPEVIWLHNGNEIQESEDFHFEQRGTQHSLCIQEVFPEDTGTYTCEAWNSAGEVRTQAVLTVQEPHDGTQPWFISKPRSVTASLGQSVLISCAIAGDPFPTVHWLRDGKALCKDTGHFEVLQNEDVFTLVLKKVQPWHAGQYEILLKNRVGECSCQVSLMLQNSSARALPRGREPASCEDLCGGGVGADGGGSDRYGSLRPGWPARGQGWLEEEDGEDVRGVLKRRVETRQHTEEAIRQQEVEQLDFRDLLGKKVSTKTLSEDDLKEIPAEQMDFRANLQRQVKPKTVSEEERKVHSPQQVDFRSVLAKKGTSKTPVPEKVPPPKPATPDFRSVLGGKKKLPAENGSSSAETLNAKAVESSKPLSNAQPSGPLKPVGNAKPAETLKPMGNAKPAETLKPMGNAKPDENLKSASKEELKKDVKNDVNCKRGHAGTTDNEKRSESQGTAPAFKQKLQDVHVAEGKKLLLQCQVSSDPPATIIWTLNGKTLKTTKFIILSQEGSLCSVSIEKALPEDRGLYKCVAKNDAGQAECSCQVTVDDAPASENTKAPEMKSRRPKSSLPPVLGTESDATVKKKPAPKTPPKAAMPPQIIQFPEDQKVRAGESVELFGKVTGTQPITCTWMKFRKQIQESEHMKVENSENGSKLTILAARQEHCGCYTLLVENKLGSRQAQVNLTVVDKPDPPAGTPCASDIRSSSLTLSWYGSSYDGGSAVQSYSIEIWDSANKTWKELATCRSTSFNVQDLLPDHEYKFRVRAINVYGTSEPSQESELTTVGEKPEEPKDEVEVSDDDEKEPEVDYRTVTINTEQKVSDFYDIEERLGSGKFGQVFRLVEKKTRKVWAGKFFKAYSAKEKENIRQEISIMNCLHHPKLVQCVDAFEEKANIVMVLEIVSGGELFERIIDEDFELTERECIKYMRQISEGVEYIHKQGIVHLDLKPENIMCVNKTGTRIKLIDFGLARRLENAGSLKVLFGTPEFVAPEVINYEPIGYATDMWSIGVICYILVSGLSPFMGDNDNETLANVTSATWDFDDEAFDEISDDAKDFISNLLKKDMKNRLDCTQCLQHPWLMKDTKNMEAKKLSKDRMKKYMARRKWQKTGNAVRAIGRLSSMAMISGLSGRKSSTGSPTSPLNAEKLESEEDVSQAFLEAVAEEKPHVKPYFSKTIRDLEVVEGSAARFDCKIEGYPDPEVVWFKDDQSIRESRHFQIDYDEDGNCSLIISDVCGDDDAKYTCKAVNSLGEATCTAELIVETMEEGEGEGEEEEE
# Chain of CDK5 (Q00535 whole entry): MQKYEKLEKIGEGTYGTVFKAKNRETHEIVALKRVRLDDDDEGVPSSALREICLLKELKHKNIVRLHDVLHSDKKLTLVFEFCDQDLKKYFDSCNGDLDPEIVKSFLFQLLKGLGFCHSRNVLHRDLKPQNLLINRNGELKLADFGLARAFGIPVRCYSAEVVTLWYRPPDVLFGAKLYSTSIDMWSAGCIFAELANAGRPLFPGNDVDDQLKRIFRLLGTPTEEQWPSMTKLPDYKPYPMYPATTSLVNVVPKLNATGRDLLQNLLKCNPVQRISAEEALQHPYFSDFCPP
smiles,measurement,setting,value
"Cn1cc(-c2c[nH]c3ncnc(N4CCOCC4)c23)cn1 [Example 1, 5-(1-Methyl-1H-pyrazol-4-yl)-4-(morpholin-4-yl)-7H-pyrrolo[2,3-d]pyrimidine]",percent inhibition,[1]; 0.1 μM,25.8%
same,percent inhibition,[1]; 1 μM,22.5%
same,inhibition at 0.1 µM,[2]; 0.1 μM,5.2%
same,inhibition at 1 µM,[2]; 1 μM,-8%
same,inhibition at 0.1 µM,[3]; 0.1 μM,-6.5%
same,inhibition at 1 µM,[3]; 1 μM,-35.1%
same,inhibition at 0.1 µM,[4]; 0.1 μM,0.9%
same,inhibition at 1 µM,[4]; 1 μM,17.7%
same,inhibition at 0.1 µM,[5]; 0.1 μM,-21%
same,inhibition at 1 µM,[5]; 1 μM,-16.6%
same,inhibition at 0.1 µM,[6]; 0.1 μM,-9.5%
same,inhibition at 1 µM,[6]; 1 μM,19.6%
same,inhibition at 0.1 µM,[7]; 0.1 μM,-7.3%
same,inhibition at 1 µM,[7]; 1 μM,-17.9%
same,inhibition at 0.1 µM,[8]; 0.1 μM,8.9%
same,inhibition at 1 µM,[8]; 1 μM,23.7%
same,inhibition at 0.1 µM,[9]; 0.1 μM,-9.7%
same,inhibition at 1 µM,[9]; 1 μM,-14.9%
same,inhibition at 0.1 µM,[10]; 0.1 μM,16.1%
same,inhibition at 1 µM,[10]; 1 μM,10.8%
same,inhibition at 0.1 µM,[11]; 0.1 μM,2.6%
same,inhibition at 1 µM,[11]; 1 μM,17.7%
same,percent inhibition,[12]; 0.1 μM,1.5%
same,percent inhibition,[12]; 1 μM,23.7%
same,inhibition at 1 µM,"[13]; IRAK1, 1 μM",-9.1%
same,inhibition at 0.1 µM,[13],-13.8%
same,inhibition at 0.1 µM,[14]; 0.1 μM,13.8%
same,inhibition at 1 µM,[14]; 1 μM,16.7%
same,inhibition at 0.1 µM,[15]; 0.1 μM,17.8%
same,inhibition at 1 µM,[15]; 1 μM,24.6%
same,percent inhibition,[16]; 0.1 μM,1.5%
same,percent inhibition,[16]; 1 μM,−14%
same,inhibition at 0.1 µM,[17]; 0.1 μM,-1.1%
same,inhibition at 1 µM,[17]; 1 μM,-14%
same,inhibition at 0.1 µM,[18]; 0.1 μM,14.4%
same,inhibition at 1 µM,[18]; 1 μM,-9%
same,inhibition at 0.1 µM,[19]; 0.1 μM,1%
same,inhibition at 1 µM,[19]; 1 μM,29.1%
same,inhibition at 0.1 µM,[20]; 0.1 μM,9%
same,inhibition at 1 µM,[20]; 1 μM,-6.7%
same,inhibition at 0.1 µM,[21]; 0.1 μM,-7%
same,inhibition at 1 µM,[21]; 1 μM,-30.4%
same,inhibition at 0.1 µM,[22]; 0.1 μM,10.9%
same,inhibition at 1 µM,[22]; 1 μM,28.4%
same,percent inhibition,[23]; 0.1 μM,−11.4%
same,percent inhibition,[23]; 1 μM,15.1%
same,inhibition at 0.1 µM,[24]; 0.1 μM,7%
same,inhibition at 1 µM,[24]; 1 μM,-10.1%
same,percent inhibition,[25]; 0.1 μM,−1.7%
same,percent inhibition,[25]; 1 μM,−17%
same,inhibition at 0.1 µM,[26]; 0.1 μM,-23.5%
same,inhibition at 1 µM,[26]; 1 μM,-19.8%
same,inhibition at 0.1 µM,[27]; 0.1 μM,23%
same,inhibition at 1 µM,[27]; 1 μM,18.9%
same,percent inhibition,[28]; 0.1 μM,9.4%
same,percent inhibition,[28]; 1 μM,−3.5%
same,inhibition at 0.1 µM,[29]; 0.1 μM,1.9%
same,inhibition at 1 µM,[29]; 1 μM,15%
same,percent inhibition,[30]; 0.1 μM,−13%
same,percent inhibition,[30]; 1 μM,−3.2%
same,inhibition at 0.1 µM,[31]; 0.1 μM,-4.3%
same,inhibition at 1 µM,[31]; 1 μM,-17.3%
same,inhibition at 0.1 µM,[32]; 0.1 μM,-11.5%
same,inhibition at 1 µM,[32]; 1 μM,-1.9%
same,percent inhibition,[33]; 0.1 μM,−24%
same,percent inhibition,[33]; 1 μM,−14.9%
same,inhibition at 0.1 µM,[34]; 0.1 μM,-5.8%
same,inhibition at 1 µM,[34]; 1 μM,-21.1%
same,inhibition at 0.1 µM,[35]; 0.1 μM,15%
same,inhibition at 1 µM,[35]; 1 μM,23.1%
same,percent inhibition,[36]; 0.1 μM,−18%
same,percent inhibition,[36]; 1 μM,4.9%
